Biological target: T1, SHP2 protein (Homo sapiens, UniProt Q06124)
T1 sequence (Q06124 1-593): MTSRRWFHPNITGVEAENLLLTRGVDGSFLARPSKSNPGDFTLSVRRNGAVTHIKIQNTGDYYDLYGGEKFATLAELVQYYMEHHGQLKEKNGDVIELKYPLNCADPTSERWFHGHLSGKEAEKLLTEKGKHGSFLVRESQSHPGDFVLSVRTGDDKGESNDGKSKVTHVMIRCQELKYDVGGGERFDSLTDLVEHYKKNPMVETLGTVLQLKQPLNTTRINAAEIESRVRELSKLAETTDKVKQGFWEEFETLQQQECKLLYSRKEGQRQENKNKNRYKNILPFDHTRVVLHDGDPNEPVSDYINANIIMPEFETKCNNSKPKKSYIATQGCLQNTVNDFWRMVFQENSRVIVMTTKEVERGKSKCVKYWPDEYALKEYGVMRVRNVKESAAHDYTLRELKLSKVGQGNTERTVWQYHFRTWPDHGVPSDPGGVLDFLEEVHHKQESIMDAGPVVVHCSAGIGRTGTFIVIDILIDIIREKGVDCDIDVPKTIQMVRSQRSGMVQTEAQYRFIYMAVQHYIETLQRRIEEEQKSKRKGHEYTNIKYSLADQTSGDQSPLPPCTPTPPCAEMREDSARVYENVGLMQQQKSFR
Assay: Measurement of SHP2 protein degradation in MV-4-11 cells (western blotting)
Format: cell-based
Set-up: endogenous in cells; host or cells: MV-4-11
Settings: MV-4-11 cells, 24 hours
In short: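 SHP2 protein levels were assessed by western blotting in MV-4-11 cells after a 24 hour compound treatment. Lysates were sonicated, centrifuged, normalized by BCA assay at 562 nm, run on Bis-tris 4-12% gels, transferred to NC membrane, probed with anti-SHPTP2 (70 kDa) and anti-GAPDH (37 kDa) antibodies, and detected on LI-COR Odyssey.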

| SHP2 degradation (%) 10 nM | SHP2 degradation (%) 100 nM | SHP2 degradation (%) 1000 nM | SMILES |
| --- | --- | --- | --- |
| 77.0% | 92.5% | 91.5% | Cc1ncsc1-c1ccc(CNC(=O)[C@@H]2C[C@@H](O)CN2C(=O)[C@@H](NC(=O)C2(F)CC2)C(C)(C)C)c(OCCCC2CCN(C(=O)CC(=O)Nc3cccc(Sc4cnc(N5CCC(C)(CN)CC5)cn4)c3Cl)CC2)c1 [Example 41, (2S,4R)—N-(2-(3-(1-(3-((3-((5-(4-(aminomethyl)-4-methylpiperidin-1-yl)pyrazin-2-yl)thio)-2-chlorophenyl)amino)-3-oxopropanoyl)piperidin-4-yl)propoxy)-4-(4-methylthiazol-5-yl)benzyl)-1-((S)-2-(1-fluorocyclopropane-1-carboxamido)-3,3-dimethylbutanoyl)-4-hydroxypyrrolidine-2-carboxamide] |
| 8.2% | 81.2% | – | Cc1ncsc1-c1ccc(CNC(=O)[C@@H]2C[C@@H](O)CN2C(=O)[C@@H](NC(=O)C2(F)CC2)C(C)(C)C)c(OCCCN2CCN(CC(=O)Nc3cccc(Sc4cnc(N5CCC(C)(CN)CC5)cn4)c3Cl)CC2)c1 [Example 73, (2S,4R)—N-(2-(3-(4-(2-((3-((5-(4-(aminomethyl)-4-methylpiperidin-1-yl)pyrazin-2-yl)thio)-2-chlorophenyl)amino)-2-oxoethyl)piperazin-1-yl)propoxy)-4-(4-methylthiazol-5-yl)benzyl)-1-((S)-2-(1-fluorocyclopropane-1-carboxamido)-3,3-dimethylbutanoyl)-4-hydroxypyrrolidine-2-carboxamide] |
| 31.6% | 95.4% | – | Cc1ncsc1-c1ccc(CNC(=O)[C@@H]2C[C@@H](O)CN2C(=O)[C@@H](NC(=O)C2(F)CC2)C(C)(C)C)c(OCCCN2CCN(C(=O)CC(=O)Nc3cccc(Sc4cnc(N5CCC(C)(CN)CC5)cn4)c3Cl)[C@H](C)C2)c1 [Example 65] |
| 71.5% | 95% | 95.5% | Cc1ncsc1-c1ccc(CNC(=O)[C@@H]2C[C@@H](O)CN2C(=O)[C@@H](NC(=O)C2(F)CC2)C(C)(C)C)c(OCC2CCN(C(=O)CCC(=O)Nc3cccc(Sc4cnc(N5CCC(C)(CN)CC5)cn4)c3Cl)CC2)c1 [Example 44, (2S,4R)—N-(2-((1-(4-((3-((5-(4-(aminomethyl)-4-methylpiperidin-1-yl)pyrazin-2-yl)thio)-2-chlorophenyl)amino)-4-oxobutanoyl)piperidin-4-yl)methoxy)-4-(4-methylthiazol-5-yl)benzyl)-1-((S)-2-(1-fluorocyclopropane-1-carboxamido)-3,3-dimethylbutanoyl)-4-hydroxypyrrolidine-2-carboxamide] |
| 91.4% | 98.9% | – | Cc1ncsc1-c1ccc(CNC(=O)[C@@H]2C[C@@H](O)CN2C(=O)[C@@H](NC(=O)C2CC2)C(C)(C)C)c(OCCN2CCN(C(=O)CC(=O)Nc3cccc(Sc4cnc(N5CCC(C)(CN)CC5)cn4)c3Cl)CC2)c1 [Example 56, (2S,4R)—N-(2-(2-(4-(3-((3-((5-(4-(aminomethyl)-4-methylpiperidin-1-yl)pyrazin-2-yl)thio)-2-chlorophenyl)amino)-3-oxopropanoyl)piperazin-1-yl)ethoxy)-4-(4-methylthiazol-5-yl)benzyl)-1-((S)-2-(cyclopropanecarboxamido)-3,3-dimethylbutanoyl)-4-hydroxypyrrolidine-2-carboxamide] |
| 86% | 93% | 93.5% | CC(=O)N[C@H](C(=O)N1C[C@H](O)C[C@H]1C(=O)NCc1ccc(-c2scnc2C)cc1OCCC1CCN(C(=O)CC(=O)Nc2cccc(Sc3cnc(N4CCC(C)(CN)CC4)cn3)c2Cl)CC1)C(C)(C)C [Example 38, (2S,4R)-1-((S)-2-acetamido-3,3-dimethylbutanoyl)-N-(2-(2-(1-(3-((3-((5-(4-(aminomethyl)-4-methylpiperidin-1-yl)pyrazin-2-yl)thio)-2-chlorophenyl)amino)-3-oxopropanoyl)piperidin-4-yl)ethoxy)-4-(4-methylthiazol-5-yl)benzyl)-4-hydroxypyrrolidine-2-carboxamide] |
